Values after ≈ are worked out from the molar mass of the structure shown. Like-named read-outs stand apart in the source and are kept apart here.
Legend:
[1] = tested on: selenite-induced cataract; assay: Selenite-induced cataract in rat pups, first animal study; format: in vivo, Wistar albino rat
Method: Four pregnant Wistar female albino rats were obtained from the Laboratory Animal Facility of the Iuliu Hatieganu University of Medicine and Pharmacy in Cluj-Napoca, Romania. Each female rat and its litter of pups were housed in plastic cages, on a 12 h lighting cycle, at constant temperature (22° C.) with free access to rat chow and tap water. At 12 days of age, the rat pups were randomized into seven groups as follows:
Group 1 (selenite group, positive control): no exposure to lutein
Group 2 (PLGA-NP-1) daily received orally, by gavage, 2.5 mg/kg PLGA-NP-lutein dispersed in a 0.5 mL emulsion of 30% olive oil+70% flour slurry, corresponding to a daily dose of 2.66 mg lutein/kg body mass. (The flour slurry, in turn, had been prepared by mixing 0.3 g flour in 1 ml water.)
Group 3 (PLGA-NP-2) daily received orally, by gavage, 5 mg/kg PLGA-NP-lutein dispersed in 0.5 mL emulsion of 30% olive oil+70% flour slurry, corresponding to a daily dose of 5.32 mg lutein/kg body mass. (Flour slurry: identical to that used for Group 2
Group 4 (lutein) daily received orally, by gavage, 0.00525 mg unmodified lutein dispersed in 0.5 mL emulsion of 30% olive oil+70% flour slurry, corresponding to a daily dose of 0.125 mg lutein/kg body mass. (Flour slurry: identical to that used for Group 2.)
Group 5 (HG-PLGA-NP-1) was treated locally, once a day, with corneal application (1 drop in each eye) of 1 wt % PLGA-NP-lutein in the bioadhesive hydrogel of Example 19. (30 mg of lyophilized lutein-loaded PLGA NPs were dissolved in 3 ml of bioadhesive hydrogel. The volume of one drop of hydrogel was approx. 0.012 mL, with a density of 0.9444 g/mL.)
Group 6 (HG-PLGA-NP-2) was treated locally, once a day, by corneal application (1 drop/in each eye) with 3% PLGA-NP-lutein in a bioadhesive hydrogel. (90 mg of lyophilized lutein-loaded PLGA NPs were dissolved in 3 ml of bioadhesive hydrogel. The volume of one drop of hydrogel was approx. 0.012 mL, with a density of 0.9444 g/mL.)
Group 7 (negative control)—no exposure to selenite, and no lutein treatment.
On day 13 post-partum, cataracts were induced in all animals in Groups 1-6 with a single, intraperitoneal injection of sodium selenite (Na2SeO3), 30 μmol/kg. Subsequently, the animals from groups 2-6 were treated daily, in accordance with the protocols described above. The lutein content of the PLGA-NPs (42.61 μg lutein/mg PLGA-NP) was assessed by UV-VIS spectrophotometry (450 nm) with an external standard calibration. On day 21 post-partum, cataract development was evaluated by slit-lamp examination. Eyes were scored into one of five stages: stage 0 (no cataract), stage 1 (slight nucleus opacity), stage 2 (mild nucleus opacity, a central while opacity occupying less than half the diameter of the nucleus), stage 3 (dense opacity, a central while opacity occupying more than half the diameter of the nucleus) and stage 4 (dense, white opacity over the whole nucleus). Statistics were performed in SPSS 14.0 for Windows and Excel. The variables were checked for normal distribution with the Shapiro-Wilk test. Groups were compared with the Wilcoxon test. Statistical significance was set at p<0.05.

[2] = cited from earlier work
[3] = cited from earlier work; remark: listed apart in the source
[4] = Solubility of lutein in water and organic solvents; format: physicochemical; settings: chloroform vs ethanol
[5] = oral gavage daily, 0.125 mg lutein/kg, day 21 postpartum

CC1=C[C@H](O)CC(C)(C)[C@H]1/C=C/C(C)=C/C=C/C(C)=C/C=C/C=C(C)/C=C/C=C(C)/C=C/C1=C(C)C[C@@H](O)CC1(C)C [Lutein, β,ε-carotene-3,3′-diol]
Cataract stage Mean ± SD [1, 5]: 3.2 ± 0.8
Stage 0 [1, 5]: 0 no. animals
Stage 1 [1, 5]: 0 no. animals
Stage 2 [1, 5]: 1 no. animals
Stage 3 [1, 5]: 2 no. animals
Stage 4 [1, 5]: 2 no. animals
reduction in cataract development vs selenite group ([1]; treated orally): small (and statistically insignificant) reduction in cataract development
Solubility ([2]; in 2-Propanol): 400 µg/mL (≈ 703 µM)
Solubility ([2]; in Acetone): 800 µg/mL (≈ 1410 µM)
Solubility ([2]; in Acetonitrile): 100 µg/mL (≈ 176 µM)
Solubility ([2]; in Benzene): 600 µg/mL (≈ 1050 µM)
Solubility ([2]; in Chloroform): 6000 µg/mL (≈ 10500 µM)
Solubility ([2]; in Cyclohexane): 50 µg/mL (≈ 87.9 µM)
Solubility ([2]; in Cyclohexanone): 4000 µg/mL (≈ 7030 µM)
Solubility ([2]; in Dimethyl formamide): 1000 µg/mL (≈ 1760 µM)
Solubility ([2]; in Ethyl acetate): 800 µg/mL (≈ 1410 µM)
Solubility ([2]; in Ethyl alcohol): 300 µg/mL (≈ 527 µM)
Solubility ([2]; in Ethyl ether): 2000 µg/mL (≈ 3520 µM)
Solubility ([2]; in Hexane): 20 µg/mL (≈ 35.2 µM)
Solubility ([2]; in Methyl alcohol): 200 µg/mL (≈ 352 µM)
Solubility ([2]; in Methyl tert butyl ether): 2000 µg/mL (≈ 3520 µM)
Solubility ([2]; in Tetrahydrofuran): 8000 µg/mL (≈ 14100 µM)
Solubility ([2]; in Toluene): 500 µg/mL (≈ 879 µM)
Solubility in water [2]: Insoluble
Solubility in water ([2]; listed as lutein): water-insoluble
Stability ([3]; stored at −20° C. under a nitrogen atmosphere): Stable if stored at −20 °C under a nitrogen
Stability ([3]; to light and oxygen): Unstable to light and oxygen;
solubility in chloroform relative to solubility in ethanol [4]: 20 times

From patent US10952974B2, “Delivery of bioactive, nanoencapsulated antioxidants” (Board of Supervisors of Louisiana State University and …, priority 2014, dated 2021)
